The source of these data is US7045495B2 (Sloan-Kettering Institute for Cancer Research, priority 1996, dated 2006).

One data set has as its system SK-GT-5 cells. Description: apoptosis by quantitative fluorescent microscopy (QFM), Hoechst-33258 staining. The note with it: for percentage of cells undergoing apoptosis (QFM): FIG. 4: safingol 50 μM and/or PMA 1 ng/ml for 1 hour, then MMC 5 μg/ml or no drug 24 hours, MMC alone 24 hours. Format: cell-based, human. As to the method:
(§1) Apoptosis was measured by two different methods: (i) Quantitative fluorescent microscopy (QFM) of nuclear changes induced by apoptosis, as determined by bisbenzimide trihydrochloride (Hoescht-33258) staining of nuclear chromatin (15), and (ii) a terminal deoxynucleotidyl transferase (TdT) assay that labels the 3′-OH ends of DNA fragments produced in apoptotic cells (16). […] MMC was diluted in water. A stock safingol solution was constituted in DMSO and was subsequently diluted at least 1:100 in media for all experiments. […] For QFM determinations, the cells were fixed in 3% paraformaldehyde and incubated at room temperature for 10 minutes. The fixative was removed and the cells were washed with 1×PBS, resuspended in 20 μl 1×PBS containing only 8 μg/ml of bisbenzimide trihydrochloride (Hoechst #33258), and incubated at room temperature for 15 minutes. Aliquots of the cells (10 μl) were placed on glass slides coated with 3-amino-propyl-triethoxysilane, and duplicate samples of 500 cells each were counted and scored for the incidence of apoptotic chromatin condensation using an Olympus BH-2 fluorescence microscope equipped with a BH2-DM2U2UV Dich. Mirror Cube filter (Olympus, Lake Success, N.Y.). For the TdT assays, the ApopTag Kit (Oncor, Gaithersburg, Md.) was used. This method employs a fluoresceinated antidigoxigenin antibody directed against nucleotides of digoxigenin-11-dUTP (d-dUTP) which are catalytically added to the 3-ends fragmented DNA by TdT. Briefly, 1–2×10^6 cells were washed and fixed with 1% paraformaldehyde. The fixed cells were incubated in a reaction mixture containing TdT and d-dUTP for 30 minutes at 37° C. Stop/wash buffer was added, and the cells were resuspended in 100 μl of fluorescinated anti-digoxigenin antibody for 30 minutes at room temperature. The cells were then washed with 0.1% Triton X-100 and counterstained with propidium iodide (PI) solution. Green (d-dUTP labeled DNA strand breaks) and red (PI staining for total DNA content) fluorescence of individual cells were measured on a FACScan flow cytometer (Becton Dickinson, San Jose, Calif.). The resulting bivariate plots enabled the detection of apoptotic events within the cell cycle. The R1 cursor was set using the control specimen to define normal levels of green fluorescence (i.e., basal levels of apoptosis). Cells with fluorescence above the R, cursor were considered apoptotic. The data from 10,000 cells were collected and analyzed using CellFit and LYSYS software (Becton Dickinson).
For the QFM duplicate samples of 500 cells each were counted and scored for the incidence of apoptotic chromatin condensation using an Olympus BH-2 fluorescence microscope.

The test system of data set [1] is MKN-74 cells. Description: apoptosis by QFM, Hoechst-33258 staining. The data set is classed as cell-based, human. As to the method: as §1
Apoptosis was again measured by QFM staining.
(§2) Induction of apoptosis was estimated by counting the frequency of condensed nuclear chromatin with Hoechst-33258 stain in duplicate samples of 400 cells.
For these studies apoptosis was measured by quantitative fluorescent microscopy (QFM) determination with bisbenzimide trihydrochloride stain (Hoescht-33258) for condensed nuclear chromatin characteristic of apoptotic cells.
For QFM determinations 500 cells were counted and scored for the incidence of apoptotic chromatin changes under an Olympus BH-2 fluorescence microscope in duplicate samples, ±SD, using a BH2-DM2U2UV Dich. Mirror Cube filter.
To study this further applicants elected to examine five bis-indolylmaleimides with various potencies against PKC. […] The induction of apoptosis was estimated by counting the frequency of condensed nuclear chromatin with Hoechst-33258 stain in duplicate samples of 400 cells.

Data set [2] concerns gastric cancer cells (SK-GT cells). Put plainly: cell proliferation studies with [3H]-thymidine. Format: cell-based, human.
The subject of data set [3] is MDA-MB-468 breast cancer cells. Description: apoptosis by QFM, Hoechst-33258 staining. The data set is classed as cell-based, human. The settings on record: for percentage of cells undergoing apoptosis (QFM): FIG. 9, safingol 50 μM. The procedure:
PRELIMINARY STUDIES. […] Apoptosis was measured by quantitative fluorescent microscopy (QFM) of nuclear changes induced by apoptosis, as determined by bisbenzimide trihydrochloride (Hoescht-33258) staining of condensed nuclear chromatin (24). For the QFM duplicate samples of 500 cells each were counted and scored for the incidence of apoptotic chromatin condensation using an Olympus BH-2 fluorescence microscope.
Applicants also tested the PKC inhibitor UCN-01 (27) which is currently in phase I clinical trial at the NCI. In contrast to safingol, which inhibits PKC by binding to its regulatory domain, UCN-01 inhibits PKC at its catalytic domain. Therefore, assessment of the effect of UCN-01 on inducing apoptosis in combination with MMC on MDA-MB-468 was also performed. The QFM method to quantitate apoptosis was again used. The conditions tested were identical to those described above for safingol except UCN-01 (1 μM) was substituted for safingol in all the conditions.
as §2

Data set [4] relates to MKN-74 cells. Put plainly: TdT assay with flow cytometry. The data set is classed as cell-based, human. The settings on record: 24 hours; safingol 50 μM, MMC 5 μg/ml. Background: In flow cytometry, cells or beads pass a laser one at a time.
Experimental: Apoptosis was measured by two different methods: (i) Quantitative fluorescent microscopy (QFM) of nuclear changes induced by apoptosis, as determined by bisbenzimide trihydrochloride (Hoescht-33258) staining of nuclear chromatin (15), and (ii) a terminal deoxynucleotidyl transferase (TdT) assay that labels the 3′-OH ends of DNA fragments produced in apoptotic cells (16). […] MMC was diluted in water. A stock safingol solution was constituted in DMSO and was subsequently diluted at least 1:100 in media for all experiments. […] For QFM determinations, the cells were fixed in 3% paraformaldehyde and incubated at room temperature for 10 minutes. […] Aliquots of the cells (10 μl) were placed on glass slides coated with 3-amino-propyl-triethoxysilane, and duplicate samples of 500 cells each were counted and scored for the incidence of apoptotic chromatin condensation using an Olympus BH-2 fluorescence microscope equipped with a BH2-DM2U2UV Dich. […] Green (d-dUTP labeled DNA strand breaks) and red (PI staining for total DNA content) fluorescence of individual cells were measured on a FACScan flow cytometer (Becton Dickinson, San Jose, Calif.). […] The R1 cursor was set using the control specimen to define normal levels of green fluorescence (i.e., basal levels of apoptosis). Cells with fluorescence above the R, cursor were considered apoptotic. […]
For another data set, the system named is cdk2. Description: cdk2 activity by histone type-I phosphorylation after immunoprecipitation from treated cells. The settings on record: MKN-74 cells; 24 hours; MMC 5.0 μg/ml, safingol 50 μM; FIG. 8. Format: cell-based, human. The procedure:
(ii) Safingol increases cdk2 activity only when co-administered with chemotherapy: For determination of cdk2 activity MKN-74 cells were treated according to the conditions shown to enhance chemotherapy induced apoptosis: (i) no drug (control) for 24 hours, (ii) Mitomycin-C alone (5.0 μg/ml) for 24 hours, (iii) Safingol alone (50 μM) for 24 hours, (iv) the combination of safingol (50 μM) and Mitomycin-C (MMC, 5.0 μg/ml) for 24 hours. Cdk2 activity was determined by histone type-I phosphorylation, as described (38). For these studies cdk2 was first immunoprecipitated from the cell lysates following treatment under these four conditions. The kinase reaction was allowed to proceed at 30° for 30 minutes in the presence of histone type-I and [^32P]ATP. For each sample a control sample was run under the same conditions, but IgG was used in place of […]. This allowed for detection on non-specific kinase activity which was then subtracted out from the cdk2 activity to determine the absolute radioactive incorporation attributable to cdk2. The samples were transferred to a 10% SDS PAGE gel for analysis. The autoradiographs were analyzed on a phosphoimager for determinations of relative cdk2 activity.

The target in data set [5] is cyclic-adenosine monophosphate-dependent protein kinase A. The settings on record: read-out: concentration for 50% inhibition of protein kinase A; safingol; cited from earlier work.
For data set [6] the following is noted: rat, in vivo; cited from earlier work.

The structures appear in SMILES notation. Several values for one entry are separate records, joined by “and”; a condition that tells them apart may be missing. Identical values can stand only once. A value given as a limit tells only on which side of the number the result lay.

As for `CO[C@@]12[C@H](COC(N)=O)C3=C(C(=O)C(C)=C(N)C3=O)N1C[C@@H]1N[C@@H]12` [MMC, Mitomycin-C], the “percentage of cells undergoing apoptosis (QFM)” value in the data set with SK-GT-5 cells is recorded as 36%±4; with MKN-74 cells [1] (24 hours, RO 32-0432 1 μM, MMC), 16%±2%; in the data set with MKN-74 cells [1] (MKN-74 (wild-type p53), 24 hours, safingol 50 μM, MMC 5 μg/ml) it was 40%; in data set [3] (24 hours, MMC 5.0 μg/ml), 6%±1; in data set [3] (24 hours, MMC […]), 4%±2. The “Percent Apoptosis” value with MKN-74 cells [1] (24 h continuous (single drug) or concomitant, flavopiridol 300 nM, MMC 1 μg/ml, paclitaxel 50 μM, carboplatin) is on record as 7%±1%. Also, in the data set with MKN-74 cells [1] (24 hours, FLAVO 300 nM, Taxol 50 μM, MMC 1 μg/ml, single drugs or in combination), the “% APOPTOSIS” value was 7%. The “percent induction of apoptosis, Concomitant” value in the data set on MKN-74 cells [1] (24 hours, FLAVO 300 nM, Taxol 50 μM, MMC 1 μg/ml, single drugs or together) is listed as 7% ± 1%. For the same compound, the “induction of apoptosis (condensed chromatin, 400 cells)” value in the data set on MKN-74 cells [1] (24 hours, PKC inhibitor 1 to 4 μM, MMC 5 μg/ml) is on record as 10% ±2%; in the data set with MKN-74 cells [1] (MKN-74, 24 hours, Flavo 300 nM, MMC 5 μg/ml), 7% ± 1; in data set [3] (MDA-MB-468, 24 hours, UCN-01 7.5 to 10 μM, MMC 5 μg/ml) it was 6% ± 1. Also, the “induction of apoptosis (QFM)” value with MKN-74 cells [1] (24 hours, safingol 50 μM, UCN-01 10 μM, MMC 5 μg/ml) was 26%±5%; in the data set on MKN-74 cells [1] (FIG. 7, 24 hours, flavopiridol 300 nM, MMC 50 μM (as printed b127)), 7%±1%. The “percent induction of apoptosis, 6hrs” value in the data set on MKN-74 cells [1] (Ro 2 μM, MMC 1 μg/ml) is given as 1.0%. Further, in the data set on MKN-74 cells [1] (Ro 2 μM, MMC 1 μg/ml), the “percent induction of apoptosis, 12hrs” value amounted to 0.8%. Also, the “percent induction of apoptosis, 24hrs” value in the data set on MKN-74 cells [1] (Ro 2 μM, MMC 1 μg/ml) came out at 5.8%. Besides, the “percent induction of apoptosis, 48hrs” value in the data set on MKN-74 cells [1] (Ro 2 μM, MMC 1 μg/ml) is recorded as 27%. Also, the “percent induction of apoptosis, 72hrs” value in the data set on MKN-74 cells [1] (Ro 2 μM, MMC 1 μg/ml) was determined as 30%. Further, the “inhibition of cell proliferation” value in data set [2] (MMC 5 μg/ml) is < 20% and 20%. Moreover, in data set [3] (MDA-MB-468, flavopiridol, MMC), the “percentage of cells undergoing apoptosis” value is 10%±2%. In addition, in the data set on MKN-74 cells [4], the “apoptotic cells: green fluorescence above R1 region (TdT assay)” value was “increased green fluorescence”. Also, the cdk2 activity entry with cdk2 is listed as “decreased cdk2”.

As to `CCCCCCCCCCCCCCC[C@H](O)[C@@H](N)CO` [safingol, L-threo-dihydrosphingosine], the IC50 in data set [5] was > 218 µM. Moreover, the “percentage of cells undergoing apoptosis (QFM)” value with SK-GT-5 cells is recorded as “essentially no effect on inducing apoptosis”; in data set [3] (24 hours, MMC 5.0 μg/ml) it was 11%±1. Also, the “potentiation of MMC-induced apoptotic response by addition of safingol” value in the data set on SK-GT-5 cells (SK-GT-5) and in the data set on MKN-74 cells [1] (MKN-74) was “approximately 2 fold” throughout. Also, in data set [6], the “potentiation of toxicity of chemotherapeutic agents” value is “did not potentiate the myelotoxicity of these agents”. Besides, in data set [2] (SK-GT / SK-GT-5 / gastric cancer cells, 24 hours), the “highest non-toxic dose (cell proliferation studies)” value is 50 µM. Besides, in the data set with MKN-74 cells [4], the “apoptotic cells: green fluorescence above R1 region (TdT assay)” value is listed as “essentially no apoptosis”. In addition, the cdk2 activity result in the data set with cdk2 is reported as “decreased cdk2”.
